Experimental findings from US9643967B2, “Pyrrolo[3,2-c]pyridine derivatives as TLR inhibitors” (TAKEDA PHARMACEUTICAL COMPANY LIMITED, priority 2013, dated 2017) are described below.

Read-outs that look alike come from different tables or passages of the source.

The test has as its target T1, mTLR9 (Mus musculus, UniProt Q9EQU3).
T1 construct: Splenocytes isolated from male C57/BL6 mice; from tissue; host or cells: splenocytes from the spleen of male C57BL/6 mice
T1 sequence (Q9EQU3 26-1032): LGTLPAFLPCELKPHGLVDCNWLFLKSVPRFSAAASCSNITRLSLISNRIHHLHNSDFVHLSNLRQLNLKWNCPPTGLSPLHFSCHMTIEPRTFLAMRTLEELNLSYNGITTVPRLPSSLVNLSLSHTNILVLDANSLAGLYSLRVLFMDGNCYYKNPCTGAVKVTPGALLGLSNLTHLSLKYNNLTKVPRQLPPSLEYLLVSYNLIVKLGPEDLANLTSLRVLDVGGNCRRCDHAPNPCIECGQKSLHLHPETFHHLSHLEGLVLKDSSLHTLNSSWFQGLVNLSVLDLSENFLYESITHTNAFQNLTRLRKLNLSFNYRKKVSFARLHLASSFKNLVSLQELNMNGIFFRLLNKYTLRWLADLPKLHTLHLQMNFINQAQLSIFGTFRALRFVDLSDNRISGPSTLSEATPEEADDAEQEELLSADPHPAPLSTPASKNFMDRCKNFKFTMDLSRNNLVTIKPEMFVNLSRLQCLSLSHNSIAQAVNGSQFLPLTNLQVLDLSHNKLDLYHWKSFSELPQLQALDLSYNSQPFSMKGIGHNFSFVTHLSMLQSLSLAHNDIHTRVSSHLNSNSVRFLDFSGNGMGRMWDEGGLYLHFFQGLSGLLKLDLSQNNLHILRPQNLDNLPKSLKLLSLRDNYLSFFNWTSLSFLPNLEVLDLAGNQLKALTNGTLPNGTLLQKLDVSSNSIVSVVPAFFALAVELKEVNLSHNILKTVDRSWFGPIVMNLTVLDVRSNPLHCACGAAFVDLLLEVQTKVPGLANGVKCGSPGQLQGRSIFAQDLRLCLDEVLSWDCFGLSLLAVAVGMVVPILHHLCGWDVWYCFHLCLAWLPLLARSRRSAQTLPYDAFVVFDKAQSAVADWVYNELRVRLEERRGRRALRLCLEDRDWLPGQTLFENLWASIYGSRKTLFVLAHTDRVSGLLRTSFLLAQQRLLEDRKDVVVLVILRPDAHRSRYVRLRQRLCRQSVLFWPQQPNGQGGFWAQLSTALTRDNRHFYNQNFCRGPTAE
Description: mTLR9 antagonism (IL-6 and TNF-α release assay) in mouse splenocytes, CpG ODN-2006 stimulated. It counts as cell-based. The note with it: 1 μM, mouse splenocytes. Summed up: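 C57BL6 mouse splenocytes (0.2 million/well) pre-incubated 30 min at 37 °C with compounds (30 μM–1 nM, 0.3% DMSO), then stimulated with 1 μg/ml CpG ODN-2006 overnight at 37 °C/5% CO2. IL-6 and TNF-α in supernatant measured by ELISA; IC50 from % inhibition curves.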

Setting [1] is: IL-6 release, read-out: mTLR9 inhibitory activity (% at 1 μM), IL-6.
Where [2] appears, read: TNF-α release, read-out: mTLR9 inhibitory activity (% at 1 μM), TNF-α.

As for `Cc1cc2c(cc(CCN3CCOCC3)n2C)c(-c2ccc(C3CCN(C(C)C)CC3)cc2)n1` [Example B31, 4-[2-[4-[4-(1-isopropyl-4-piperidyl)phenyl]-1,6-dimethyl-pyrrolo[3,2-c]pyridin-2-yl]ethyl]morpholine], the inhibition at 1 µM amounted to 100% under setting [1] and 92% under setting [2].
Consider `CC(C)N1CCN(c2ccc(-c3nccc4[nH]c(CCCN5CCOCC5)cc34)cc2)CC1` [Example C1, 4-[3-[4-[4-(4-isopropylpiperazin-1-yl)phenyl]-1H-pyrrolo[3,2-c]pyridin-2-yl]propyl]morpholine], for which the inhibition at 1 µM under setting [2] was determined as 100%.
Consider `CN1CCN(c2ccc(-c3nccc4[nH]c(CCCN5CCOCC5)cc34)cc2)CC1` [Example C2, 4-[3-[4-[4-(4-methylpiperazin-1-yl)phenyl]-1H-pyrrolo[3,2-c]pyridin-2-yl]propyl]morpholine], for which the inhibition at 1 µM under setting [2] is 100%.
Turning to `Cc1cc2[nH]c(CCCN3CCOCC3)cc2c(-c2ccc(N3CCN(C(C)C)CC3)cc2)n1` [Example C3, 4-[3-[4-[4-(4-isopropylpiperazin-1-yl)phenyl]-6-methyl-1H-pyrrolo[3,2-c]pyridin-2-yl]propyl]morpholine], the inhibition at 1 µM was determined as 100% under setting [1] and 100% under setting [2].
With `Cc1cc2[nH]c(CCCN3CCCCC3)cc2c(-c2ccc(N3CCN(C(C)C)CC3)cc2)n1` [Example C5, 4-[4-(4-isopropylpiperazin-1-yl)phenyl]-6-methyl-2-[3-(1-piperidyl)propyl]-1H-pyrrolo[3,2-c]pyridine], the inhibition at 1 µM by setting is: under setting [1], 94%; under setting [2], 100%.
As for `Cc1cc2c(cc(CCCN3CCOCC3)n2C)c(-c2ccc(N3CCN(C(C)C)CC3)cc2)n1` [Example C6, 4-[3-[4-[4-(4-isopropylpiperazin-1-yl)phenyl]-1,6-dimethyl-pyrrolo[3,2-c]pyridin-2-yl]propyl]morpholine], the inhibition at 1 µM reads like this: under setting [1], 100%; under setting [2], 100%.
